This note sets out measurements from article PMC8808744 (ACS chemical biology, 2019).

Values after ≈ are worked out from the molar mass of the structure shown.

Test [1] concerns P. aeruginosa PAO1. The test is described as follows: MIC against parent strain PAO1. Conditions: Pseudomonas aeruginosa. Format: cell-based.
Test [2] has as its system wild-type P. aeruginosa PAO1. Description: Growth-curve assay in liquid medium. In kind it is cell-based, Pseudomonas aeruginosa. Conditions: CAZ at 0.28 μg mL^−1, MEM at 0.14 μg mL^−1 (sub-MIC).
Test [3] addresses MltDsol (Pseudomonas aeruginosa, UniProt Q9I2T2). Description: biochemical. In kind it is binding.
The target of test [4] is Slt (Pseudomonas aeruginosa, UniProt Q9HZI6). The test is described as follows: biochemical. Format: binding.
Chain of Slt (Q9HZI6 25-642 limits assumed): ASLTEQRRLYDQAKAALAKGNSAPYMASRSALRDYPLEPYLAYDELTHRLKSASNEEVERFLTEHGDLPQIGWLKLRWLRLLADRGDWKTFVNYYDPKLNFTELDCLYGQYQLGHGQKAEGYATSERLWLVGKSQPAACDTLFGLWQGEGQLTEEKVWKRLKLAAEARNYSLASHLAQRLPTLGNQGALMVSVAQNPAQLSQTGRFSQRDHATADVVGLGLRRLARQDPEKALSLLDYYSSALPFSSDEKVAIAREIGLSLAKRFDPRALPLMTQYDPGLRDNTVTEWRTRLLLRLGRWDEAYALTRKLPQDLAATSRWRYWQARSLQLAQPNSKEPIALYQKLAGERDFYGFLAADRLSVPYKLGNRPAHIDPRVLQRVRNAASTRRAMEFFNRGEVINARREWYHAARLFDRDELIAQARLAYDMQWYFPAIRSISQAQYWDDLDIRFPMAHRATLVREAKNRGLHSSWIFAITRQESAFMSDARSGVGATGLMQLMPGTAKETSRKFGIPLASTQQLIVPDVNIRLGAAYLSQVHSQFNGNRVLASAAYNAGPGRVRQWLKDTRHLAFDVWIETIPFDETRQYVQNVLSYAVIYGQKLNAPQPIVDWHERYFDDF
For test [5], the target named is Ec MltGsol (Escherichia coli, UniProt P28306). Description: Dissociation constant by non-denaturing mass spectrometry, E. coli MltGsol. In kind it is binding.
Chain of Ec MltGsol (P28306 25-340 with tags or gaps limits assumed): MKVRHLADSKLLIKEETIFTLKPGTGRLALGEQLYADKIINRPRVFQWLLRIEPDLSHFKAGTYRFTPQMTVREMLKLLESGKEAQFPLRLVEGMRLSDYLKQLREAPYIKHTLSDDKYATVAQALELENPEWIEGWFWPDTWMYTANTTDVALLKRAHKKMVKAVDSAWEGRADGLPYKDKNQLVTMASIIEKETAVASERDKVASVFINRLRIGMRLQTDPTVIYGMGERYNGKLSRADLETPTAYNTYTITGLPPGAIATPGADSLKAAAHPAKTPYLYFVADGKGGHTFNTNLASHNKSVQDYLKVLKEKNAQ
Test [6] has as its system P. aeruginosa PAO1. In kind it is cell-based, Pseudomonas aeruginosa.
Test [7] addresses SltB1 (Pseudomonas aeruginosa, UniProt Q9HX24). Description: biochemical. In kind it is binding.

Chain of MltDsol (Q9I2T2 32-534 limits assumed): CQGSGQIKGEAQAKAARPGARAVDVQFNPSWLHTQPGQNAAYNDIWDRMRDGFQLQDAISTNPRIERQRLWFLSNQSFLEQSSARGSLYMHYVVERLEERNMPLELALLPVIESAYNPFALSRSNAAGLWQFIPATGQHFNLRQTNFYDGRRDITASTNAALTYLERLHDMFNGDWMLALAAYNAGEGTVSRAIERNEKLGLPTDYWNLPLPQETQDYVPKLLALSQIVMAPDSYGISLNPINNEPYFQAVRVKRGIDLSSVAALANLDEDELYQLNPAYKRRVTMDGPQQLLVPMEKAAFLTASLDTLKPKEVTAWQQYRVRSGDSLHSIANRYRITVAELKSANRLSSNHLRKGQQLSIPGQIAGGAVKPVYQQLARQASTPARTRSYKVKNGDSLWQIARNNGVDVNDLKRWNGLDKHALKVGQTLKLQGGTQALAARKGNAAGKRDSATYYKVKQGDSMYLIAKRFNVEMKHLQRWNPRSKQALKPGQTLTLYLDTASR
Chain of SltB1 (Q9HX24 34-340 limits assumed): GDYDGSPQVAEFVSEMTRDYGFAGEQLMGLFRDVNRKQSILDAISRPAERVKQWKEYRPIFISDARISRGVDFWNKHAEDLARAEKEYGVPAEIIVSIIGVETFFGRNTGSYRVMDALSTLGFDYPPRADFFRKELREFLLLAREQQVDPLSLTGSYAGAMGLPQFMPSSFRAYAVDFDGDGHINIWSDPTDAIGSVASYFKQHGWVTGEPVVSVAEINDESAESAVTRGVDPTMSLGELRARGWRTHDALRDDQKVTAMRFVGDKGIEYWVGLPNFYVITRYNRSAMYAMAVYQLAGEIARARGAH

For `CC(C)(O/N=C(\C(=O)N[C@@H]1C(=O)N2C(C(=O)[O-])=C(C[n+]3ccccc3)CS[C@H]12)c1csc(N)n1)C(=O)O` [CAZ, Ceftazidime], in test [1], the MIC is 0.5 µg/mL (≈ 0.915 µM). Also, the “growth of wild-type PAO1 with β-lactam alone” value in test [2] is on record as “normal growth”.

In the case of `C[C@@H](O)[C@H]1C(=O)N2C(C(=O)O)=C(S[C@@H]3CN[C@H](C(=O)N(C)C)C3)[C@H](C)[C@H]12` [MEM, Meropenem], in test [1], the MIC was 0.5 µg/mL (≈ 1.3 µM). For the same compound, the “growth of wild-type PAO1 with β-lactam alone” value in test [2] is given as “normal growth”.

`CC(=O)N[C@H]1[C@H](O[C@H]2C[C@@H](C(=O)NCCS(=O)(=O)O)N[C@@H]2CO)O[C@H](CO)[C@@H](OS(=O)(=O)O)[C@@H]1O` [Bulgecin A]: the Kd in test [3] came out at 1.4 ± 0.3 µM; in test [4], 8.5 ± 1.1 µM; in test [5], 24 ± 5.1 µM; in test [7], 160 ± 21 µM. Moreover, in test [6], the “recovery of CAZ/bulgecin A-damaged bacteria” value is “delayed recovery”.
